Measurements: publication PMC8625052, “The Antiarrhythmic Activity of Novel Pyrrolidin-2-one Derivative S-75 in Adrenaline-Induced Arrhythmia” (Pharmaceuticals, 2021)
Entries after “also recorded” stand apart in the source; their conditions may differ. Marks after values point to notes of the source that are not given here.

Tests used:
[1] = test system: post-reperfusion arrhythmia of isolated rat heart; assay: Antiarrhythmic activity in the post-reperfusion model in isolated rat heart; details: for Extrasystoles (%) / Fibrillations (%) / Tachycardia (%): % occurrence
Procedure: Hearts form Wistar rats were isolated and immersed in Chenoweth–Koelle solution (120 mM NaCl; 5 mM KCl; 2.2 mM MgCl2; […]; 2.4 mM CaCl2; 10 mM glucose). Hearts were perfused according to the Langendorff model under a constant pressure of 70 cm H2O (6.87 kPa) with a solution at 37 °C, pH 7.4, constantly oxygenated (O2/CO2, 19:1) using the MyoHEART Langendorff System-900MH (Danish Myo Technology, Hinnerup, Denmark), which monitored the ECG. After 20 min stabilization period, acute myocardial ischemia was induced locally by installing a clamp on the left coronary artery (ischemic period). After 15 min, the clamp was removed, and ECG changes were monitored for 30 min (reperfusion period). The tested compound was added to the perfusion solution 15 min before coronary artery clamping. The point scale described by Bernauer was used to assess the antiarrhythmic activity in this arrhythmia model. The occurrence of a specific type of heart rhythm disturbance during the reperfusion period was scored according to the following scale: • occurrence of less than 10 extrasystoles—1 point; • occurrence of more than 10 extrasystoles—2 points; • presence of ventricular tachycardia—3 points; • presence of fibrillation—4 points.

[2] = molecular target: α1A receptor; parameters: method as in PMID 25813897; details: antagonist; cited from earlier work
[3] = test system: normal ECG in rats; assay: Effect on normal electrocardiogram in rats; assay type: in vivo, rat; parameters: PQ / QRS / QTc / QT / Rate (heart rate): unit not given here; details: 5 mg/kg iv; for QTc: Bazzett's formula
Procedure: To eliminate the influence of the tested derivative on normal electrocardiogram (ECG), the experiment was performed. ECG tests were carried out with Aspel ASCARD apparatus (standard II lead, with the tape speed 50 mm/s and voltage calibration 1 Mv = 1 cm). The ECG was recorded prior and 5, 10, 15 min after iv administration of tested compound. The influence on PQ, QT, QTc interval, QRS complex and heart rate (RR) was defined. The Bazzett’s formula: QTc = QT/√RR was used to calculate QTc.

[4] = molecular target: T1, potassium hERG channel (Homo sapiens, UniProt Q12809); assay: Radioligand binding assay for K+ channel hERG ([3H]-dofetilide, HEK-293 cells)
T1 construct: host or cells: HEK-293
T1 sequence (Q12809 whole entry): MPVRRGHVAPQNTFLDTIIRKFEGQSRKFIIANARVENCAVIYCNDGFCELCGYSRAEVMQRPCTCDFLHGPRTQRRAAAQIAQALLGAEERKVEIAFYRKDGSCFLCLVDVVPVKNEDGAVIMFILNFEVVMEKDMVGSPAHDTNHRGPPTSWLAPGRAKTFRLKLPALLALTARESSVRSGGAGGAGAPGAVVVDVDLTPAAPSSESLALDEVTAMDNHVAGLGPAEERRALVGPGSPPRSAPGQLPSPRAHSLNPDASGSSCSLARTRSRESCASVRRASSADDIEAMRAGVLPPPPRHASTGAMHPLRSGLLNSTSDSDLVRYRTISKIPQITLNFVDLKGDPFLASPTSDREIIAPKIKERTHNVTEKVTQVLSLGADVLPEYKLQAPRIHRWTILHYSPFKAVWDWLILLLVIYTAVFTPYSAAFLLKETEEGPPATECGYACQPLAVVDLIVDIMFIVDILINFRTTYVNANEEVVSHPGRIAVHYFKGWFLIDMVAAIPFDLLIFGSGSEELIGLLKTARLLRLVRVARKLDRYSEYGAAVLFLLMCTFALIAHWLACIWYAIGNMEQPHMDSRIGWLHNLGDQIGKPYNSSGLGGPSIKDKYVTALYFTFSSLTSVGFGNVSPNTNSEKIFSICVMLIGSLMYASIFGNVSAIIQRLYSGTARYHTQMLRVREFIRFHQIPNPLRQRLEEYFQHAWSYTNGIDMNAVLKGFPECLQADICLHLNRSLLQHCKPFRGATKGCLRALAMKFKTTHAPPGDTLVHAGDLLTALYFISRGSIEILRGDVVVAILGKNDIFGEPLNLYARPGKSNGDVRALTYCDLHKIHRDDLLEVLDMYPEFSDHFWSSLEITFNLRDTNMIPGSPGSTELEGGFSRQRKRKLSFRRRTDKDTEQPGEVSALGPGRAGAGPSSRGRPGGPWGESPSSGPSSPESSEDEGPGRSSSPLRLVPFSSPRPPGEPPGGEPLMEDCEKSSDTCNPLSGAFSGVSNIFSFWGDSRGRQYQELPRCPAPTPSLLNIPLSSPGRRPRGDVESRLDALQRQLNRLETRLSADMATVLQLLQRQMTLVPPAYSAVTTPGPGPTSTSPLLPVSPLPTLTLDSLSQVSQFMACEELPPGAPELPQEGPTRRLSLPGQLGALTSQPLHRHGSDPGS
Procedure: The radioligand binding studies for K^+ and Ca^2+ channels were performed commercially by Eurofins Cerep (Celle l’Evescault, France) using testing procedures described elsewhere [68, 69].

[5] = molecular target: T2, β1-adrenergic receptors (Rattus norvegicus, UniProt P18090); assay: Radioligand binding assay for β1-adrenergic receptors ([3H]-CGP-12177); details: rat cortex tissue
T2 construct: from tissue; host or cells: rat cortex
T2 sequence (P18090 whole entry): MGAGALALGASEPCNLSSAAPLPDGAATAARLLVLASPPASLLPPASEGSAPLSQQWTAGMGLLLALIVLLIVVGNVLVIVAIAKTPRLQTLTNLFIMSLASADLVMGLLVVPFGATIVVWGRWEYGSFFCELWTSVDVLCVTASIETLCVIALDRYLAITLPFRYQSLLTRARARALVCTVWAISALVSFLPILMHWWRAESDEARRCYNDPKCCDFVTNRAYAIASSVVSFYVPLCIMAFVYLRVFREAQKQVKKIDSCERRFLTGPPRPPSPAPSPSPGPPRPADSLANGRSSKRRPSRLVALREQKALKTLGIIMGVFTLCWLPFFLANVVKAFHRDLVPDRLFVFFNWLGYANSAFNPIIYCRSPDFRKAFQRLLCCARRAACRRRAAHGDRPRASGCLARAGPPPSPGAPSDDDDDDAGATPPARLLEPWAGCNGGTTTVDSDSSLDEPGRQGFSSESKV
Procedure: Radioligand binding assay was performed on tissue rat cortex. […] In order to measure the unspecific binding 1 μM of propranolol was applied. Microplate was covered with a sealing tape, mixed and incubated for 60 minutes at 37 °C. The incubation was terminated by rapid filtration through GF/B filter mate. Ten rapid washes with 200 µL 50 mM Tris buffer (4 °C, pH 7.6) were completed using 96-well FilterMate harvester (PerkinElmer, Boston, MA, USA). The filter mates were dried at 37 °C in forced air fan incubator and then solid scintillator MeltiLex was melted on filter mates at 90 °C for 4 min. […] Data were fitted to a one-site curve-fitting equation with Prism 6 (GraphPad Software, San Diego, CA, USA) and Ki values were estimated from the Cheng−Prusoff equation [51].

[6] = test system: isolated rat heart; assay: Effect on normal ECG of isolated rat heart (Langendorff)
Procedure: Hearts form Wistar rats were isolated and immersed in Chenoweth-Koelle solution (120 mM NaCl; 5 mM KCl; 2.2 mM MgCl2; […]; 2.4 mM CaCl2; 10 mM glucose). Hearts were perfused according to the Langendorff model under a constant pressure of 70 cm H2O (6.87 kPa) with a solution at 37 °C, pH 7.4, constantly oxygenated (O2/CO2, 19:1) using the MyoHEART Langendorff System-900MH (Danish Myo Technology, Hinnerup, Denmark), which simultaneously monitored the ECG. After 20-min stabilization period, the tested compound was administered directly to the nutrient fluid every 15 min at increasing concentrations of […]. The influence on PQ, QTc interval, QRS complex and heart rate (RR) was assessed. The Bazzett’s formula: QTc = QT/√RR was used to calculate QTc.

[7] = test system: aconitine-induced arrhythmia in rats; assay: Prophylactic antiarrhythmic activity in aconitine-induced arrhythmia; assay type: in vivo, rat
[8] = test system: blood pressure in normotensive rats; parameters: method as in PMID 25813897; details: doses 5, 1, and 0.5 mg/kg; cited from earlier work
[9] = test system: calcium chloride-induced arrhythmia in rats; assay: Prophylactic antiarrhythmic activity in calcium chloride-induced arrhythmia; assay type: in vivo, rat
[10] = molecular target: α2 receptors; parameters: method as in PMID 25813897; details: cited from earlier work
[11] = molecular target: α1 receptors; parameters: method as in PMID 25813897; details: cited from earlier work
[12] = molecular target: α1B receptor; parameters: method as in PMID 25813897; details: antagonist; cited from earlier work
[13] = test system: adrenaline-induced arrhythmia in rats; assay: Prophylactic antiarrhythmic activity in adrenaline-induced arrhythmia; assay type: in vivo, rat; details: for Blocks (%) / Bradycardia (%) / Extrasystoles (%) / Mortality (%): adrenaline 20 μg/kg iv, % occurrence
[14] = molecular target: Ca2+ channel (L, verapamil site); assay: Radioligand binding assay for Ca2+ channel ([3H]-D888); parameters: species or system rat
Procedure: The radioligand binding studies for K^+ and Ca^2+ channels were performed commercially by Eurofins Cerep (Celle l’Evescault, France) using testing procedures described elsewhere. […]

[15] = test system: isolated ischemic rat hearts; parameters: method as in PMID 9228191; details: cited from earlier work
[16] = test system: arrhythmia caused by cardiac ischemia in dogs; parameters: method as in PMID 7528295; details: dogs after myocardial infarction; cited from earlier work
[17] = reperfusion, concentration 10^−6 M
[18] = 0 min (prior to administration)
[19] = aconitine 20 μg/kg iv, dose 5 mg/kg iv 15 min before, % occurrence
[20] = calcium chloride 140 mg/kg iv, dose 5 mg/kg iv 15 min before, % occurrence
[21] = reperfusion, concentration 10^−10 M
[22] = dose 0.03 mg/kg iv 15 min before
[23] = dose 0.06 mg/kg iv 15 min before
[24] = dose 0.125 mg/kg iv 15 min before
[25] = dose 0.25 mg/kg iv 15 min before
[26] = dose 0.5 mg/kg iv 15 min before

With `C=C[C@H]1C[N@@]2CC[C@H]1C[C@@H]2[C@@H](O)c1ccnc2ccc(OC)cc12` [Quinidine] the “Extrasystoles (%)” value [1, 17] was 83.3%, the “Fibrillations (%)” value [1, 17] was 0% and the “Tachycardia (%)” value [1, 17] was 50%. The “Arrhythmia Severity Index” value ([1]; reperfusion, concentration 10^−6 M, Bernauer scale) was 2.3 *.
For `Cl.O=C1CCCN1CCCCN1CCN(c2ccccc2Cl)CC1` [S-75, 1-(4-(4-(2-chlorophenyl)piperazin-1-yl)butyl)pyrrolidin-2-one hydrochloride], the EC50 [2] is given as 138 ± 21.9 nM, the “influence on QRS” value [3] is given as “no influence” and the “influence on QT” value [3] is given as “no influence”. For the same molecule, the “influence on QTc” value [3] was “no influence; also recorded: did not prolong”, the PQ [3, 18] was 46.44 ± 1.352 and the QRS [3, 18] was 33.78 ± 1.384. For the same molecule, the QT [3, 18] was 81.57 ± 1.356, the “Rate (heart rate)” value [3, 18] was 310.8 ± 17.07 and the QTc [3, 18] was 182.9 ± 4.805. For the same molecule, the PQ ([3]; 5 min) was 47.00 ± 1.537, the QRS ([3]; 5 min) was 35.56 ± 1.701 and the QT ([3]; 5 min) was 81.53 ± 1.812. The “Rate (heart rate)” value ([3]; 5 min) was 307.9 ± 18.93, the QTc ([3]; 5 min) was 192.3 ± 6.176 and the PQ ([3]; 10 min) was 49.78 ± 1.042. For the same molecule, the QRS ([3]; 10 min) was 33.89 ± 1.628, the QT ([3]; 10 min) was 82.47 ± 2.186 and the “Rate (heart rate)” value ([3]; 10 min) was 287.8 ± 22.94. The QTc ([3]; 10 min) was 189.3 ± 9.543, the PQ ([3]; 15 min) was 52.11 ± 2.061 and the QRS ([3]; 15 min) was 37.22 ± 1.637. The QT ([3]; 15 min) was 83.90 ± 1.730, the “Rate (heart rate)” value ([3]; 15 min) was 284.0 ± 23.50 and the QTc ([3]; 15 min) was 190.9 ± 11.46. The “decrease of the heart rate” value ([3]; after 10 min) was 7.4%, the “decrease of the heart rate” value ([3]; after 15 min) was 8.6% and the “prolongation of the PQ interval” value ([3]; after 15 min) was 12.2%. For the same molecule, the IC50 ([4]; HEK-293 cells, [3H]-dofetilide) was 29.3 µM, the “affinity toward potassium channel hERG, times lower than terfenadine” value ([4]; vs terfenadine) was 1172 times and the “β1 (pKi [nM])” value [5] was “did not bind”. For the same molecule, the “prolongation of the PQ interval” value ([6]; 10^−8 mol/L) was 15.1%, the “prolongation of the RR interval” value ([6]; 10^−8 mol/L) was 10.5% and the “effect on QRS complex” value ([6]; 10^−10–10^−8 mol/L) was “not affecting; also recorded: did not affect”. For the same molecule, the “effect on QTc interval” value ([6]; 10^−10–10^−8 mol/L) was “not affecting; also recorded: did not affect”, the “Blocks (%)” value [7, 19] was 100% and the “Bradycardia (%)” value [7, 19] was 100%. For the same molecule, the “Extrasystoles (%)” value [7, 19] was 100%, the “Fibrillations (%)” value [7, 19] was 100% and the “Mortality (%)” value [7, 19] was 100%. For the same molecule, the “activity in aconitine-induced arrhythmia” value ([7]; prophylactic, rats) was “no activity”, the “effect on blood pressure” value [8] was “significantly decreased the blood pressure” and the “Blocks (%)” value [9, 20] was 100%. The “Bradycardia (%)” value [9, 20] was 100%, the “Extrasystoles (%)” value [9, 20] was 100% and the “Fibrillations (%)” value [9, 20] was 66.7%. For the same molecule, the “Mortality (%)” value [9, 20] was 83.3%, the “activity in calcium chloride-induced arrhythmia” value ([9]; prophylactic, rats) was “no activity” and the “pKi α2 receptors” value [10] was 6.01. For the same molecule, the “pKi α1 receptors” value [11] was 7.3, the “activity in the post-reperfusion model of arrhythmia” value [1] was “did not show the activity” and the “Extrasystoles (%)” value [1, 21] was 100%. The “Fibrillations (%)” value [1, 21] was 100%, the “Tachycardia (%)” value [1, 21] was 100% and the EC50 [12] was 2.53 ± 0.5 nM. The ED50 ([13]; Rattus norvegicus, prophylactic, iv 15 min before adrenaline 20 μg/kg, Litchfield and Wilcoxon, limits in brackets, read-out: ED50 (a dose producing a 50% inhibition of ventricular contractions)) was 0.05 mg/kg, the “Blocks (%)” value [13, 22] was 100% and the “Bradycardia (%)” value [13, 22] was 100%. The “Extrasystoles (%)” value [13, 22] was 100%, the “Mortality (%)” value [13, 22] was 33.3% and the “Blocks (%)” value [13, 23] was 50%. For the same molecule, the “Bradycardia (%)” value [13, 23] was 100%, the “Extrasystoles (%)” value [13, 23] was 83.3% and the “Mortality (%)” value [13, 23] was 0%. For the same molecule, the “Blocks (%)” value [13, 24] was 33.3%, the “Bradycardia (%)” value [13, 24] was 33.3% and the “Extrasystoles (%)” value [13, 24] was 66.7%. The “Mortality (%)” value [13, 24] was 50%, the “Blocks (%)” value [13, 25] was 50% and the “Bradycardia (%)” value [13, 25] was 16.7%. For the same molecule, the “Extrasystoles (%)” value [13, 25] was 66.7%, the “Mortality (%)” value [13, 25] was 0% and the “Blocks (%)” value [13, 26] was 33.3%. For the same molecule, the “Bradycardia (%)” value [13, 26] was 0%, the “Extrasystoles (%)” value [13, 26] was 16.7% and the “Mortality (%)” value [13, 26] was 0%. The IC50 ([14]; rat cortex tissue, [3H]-D888) was 0.757 µM and the “affinity for L-type calcium channels, times lower than D-600” value ([14]; vs reference D-600) was 20 times.
For `COc1cccc(OC)c1OCCNCC1COc2ccccc2O1` (stereo not shown) [WB 4101], the “reduction of the incidence of ventricular fibrillation / arrhythmias” value [15] is given as 49%.
In the case of `Cc1ccc(N(CC2=NCCN2)c2cccc(O)c2)cc1` [phentolamine], the “reduction of the incidence of ventricular fibrillation / arrhythmias” value [15] is given as 32%.
In the case of `COc1cc2nc(N3CCN(C(=O)c4ccco4)CC3)nc(N)c2cc1OC` [prazosin], the “reduction of the incidence of ventricular fibrillation / arrhythmias” value [15] is listed as 83% and the “animals in which arrhythmia caused by cardiac ischemia was prevented” value [16] is listed as 78%.
